# In ChEMBL document CHEMBL2151022, “Combatting Drug-Resistant Bacteria with Gyrase and Topoisomerase IV Inhibitors: Patent Highlight” (ACS Med Chem Lett, 2012):
# Molecular target: DNA gyrase subunit B (Staphylococcus aureus, UniProt P0A0K8)
# Test: Inhibition of Staphylococcus aureus DNA gyrase Gyr B subunit by ATPase assay
# Chain of DNA gyrase subunit B (P0A0K8 whole entry): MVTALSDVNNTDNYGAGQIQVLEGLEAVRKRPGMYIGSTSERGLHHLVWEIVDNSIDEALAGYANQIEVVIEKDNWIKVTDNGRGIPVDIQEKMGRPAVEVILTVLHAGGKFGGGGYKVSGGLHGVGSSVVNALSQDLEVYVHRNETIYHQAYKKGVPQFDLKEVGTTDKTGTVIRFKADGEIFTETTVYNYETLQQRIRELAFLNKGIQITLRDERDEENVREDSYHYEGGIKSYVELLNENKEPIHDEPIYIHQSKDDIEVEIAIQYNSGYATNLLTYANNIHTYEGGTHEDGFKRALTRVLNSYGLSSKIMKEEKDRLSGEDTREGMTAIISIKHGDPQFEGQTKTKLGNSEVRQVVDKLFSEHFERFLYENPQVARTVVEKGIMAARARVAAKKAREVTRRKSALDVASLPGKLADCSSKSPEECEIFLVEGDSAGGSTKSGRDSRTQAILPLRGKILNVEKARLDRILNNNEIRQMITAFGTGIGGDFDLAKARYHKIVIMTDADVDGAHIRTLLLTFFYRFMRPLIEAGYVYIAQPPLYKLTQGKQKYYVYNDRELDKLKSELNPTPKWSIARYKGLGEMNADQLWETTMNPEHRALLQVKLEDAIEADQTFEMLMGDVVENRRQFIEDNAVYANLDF
smiles,measurement,value
CCNC(=O)Nc1nc2cc(-c3cnc(C(C)(C)OP(=O)(O)O)nc3)c(F)c([C@H]3CCCO3)c2[nH]1,Ki,< 9 nM
